{"source": "patent US11020405B2", "about": "“Method for prevention or treatment of diabetic complications” (KANGWON NATIONAL UNIVERSITY UNIVERSITY-INDUSTRY COOPERATION …, priority 2017, dated 2021)", "key": {"[1]": {"system": "retinal vessels of diabetic mice", "experiment": "Fluorescein angiography for mouse model (retinal vascular leakage)", "assay_type": "in vivo, C57BL/6 mice", "conditions": "intravitreal 3 μL of 0.4 mM flumazenil in two administrations and 2 μL of 2 mM midazolam, group excluded from those without significant increase"}, "[2]": {"system": "human retinal endothelial cells (HRECs)", "experiment": "Identification of receptor of midazolam through ROS concentration analysis", "assay_type": "cell-based", "conditions": "0-50 μM flumazenil or 0-30 μM PK11195 1 hr, then 20 μM midazolam 30 min, then 10 ng/ml VEGF (FIG. 10B)", "method": "With reference to FIG. 10A, the HRECs of Test Example 1 were subjected to the respective treatments below, cultured for 10 min, treated with 10 μM H2DCFDA, stained for 10 min in a phenol-red-free low-serum medium, and measured using confocal microscopy to thus determine the fluorescence intensity of single cells.\n(§1) As will be described below, flumazenil was used as a GABAA receptor antagonist and PK11195 was used as a TSOP receptor antagonist.\nWith reference to FIG. 10B, the HRECs of Test Example 1 were treated with 0 μM, 0.01 μM, 0.1 μM, 1 μM, 10 μM, 20 μM, and 50 μM flumazenil and 0 μM, 0.01 μM, 0.1 μM, 1 μM, 3 μM, 10 μM, and 30 μM PK11195, cultured for 1 hr, treated with 20 μM midazolam, cultured for 30 min, treated with 10 ng/ml VEGF, incubated for 10 min, treated with 10 μM H2DCFDA, stained for 10 min in a phenol-red-free low-serum medium, and then measured using confocal microscopy to thus determine the fluorescence intensity of single cells."}, "TGase [3]": {"system": "TGase", "experiment": "Analysis of TGase activity in retinas of diabetic mouse model", "assay_type": "in vivo, C57BL/6 mice", "conditions": "intravitreal 3 μL of 0.4 mM flumazenil in two administrations and 2 μL of 2 mM midazolam, group excluded from those without significant increase", "method": "6-week-old male C57BL/6 mice (DBL, EumSeong, Korea) were administered with streptozotocin (Sigma-Aldrich) dissolved in a 100 mM citrate buffer (pH 4.5) through intraperitoneal injection in an amount of 150 mg each per kg of mouse weight to give diabetic mouse models. In the diabetic mouse models, the blood glucose level was 19 mM or more when not fasting, and polyuria and diabetes, considered signs of diabetes, were observed. […]\n48 μL of 100 mM 5-(biotinamido)pentylamine was injected into the left ventricle of each of normal mice (Normal), midazolam-administered normal mice (Midazolam), diabetic mice (Diabetic), midazolam-administered diabetic mice (Diabetic+Midazolam), flumazenil- and midazolam-administered diabetic mice (Diabetic+flumazenil+Midazolam), cystamine-administered diabetic mice (Diabetic+cystamine) and MDC-administered diabetic mice (Diabetic+MDC) and circulated for 10 min, after which cervical dislocation was performed, and the eyeballs were extracted, fixed with 4% paraformaldehyde for 45 min, incised and subjected to permeation treatment for 30 min. The obtained retinal samples were incubated with a blocking solution for 30 min, treated with FITC-conjugated streptavidin (1:200, v/v), stained for 1 hr, and measured using confocal microscopy. […]"}, "TGase [4]": {"system": "TGase", "experiment": "Identification of receptor of midazolam through TGase activity analysis", "assay_type": "cell-based, human", "conditions": "HRECs, 0-50 μM flumazenil or 0-30 μM PK11195 1 hr, then 20 μM midazolam 30 min, then 10 ng/ml VEGF (FIG. 11B)", "method": "With reference to FIG. 11A, the HRECs of Test Example 1 were subjected to the respective treatments below, cultured for 2 hr, treated with 1 mM 5-(biotinamido)pentylamine, incubated for 1 hr, fixed with 3.7% formaldehyde, treated with 0.2% triton X-100, treated with a blocking solution containing 138 mM NaCl, 0.1% Tween 20 and 2% BSA dissolved in a 20 mM Tris (pH 7.6) buffer, incubated for 30 min, incubated with FITC-conjugated streptavidin (1:200, v/v) for 1 hr, and then measured using confocal microscopy to thus determine the fluorescence intensity of single cells.\nas §1\nWith reference to FIG. 11B, the HRECs of Test Example 1 were treated with 0 μM, 0.01 μM, 0.1 μM, 1 μM, 10 μM, 20 μM, and 50 μM flumazenil and 0 μM, 0.01 μM, 0.1 μM, 1 μM, 3 μM, 10 μM, and 30 μM PK11195, cultured for 1 hr, treated with 20 μM midazolam, cultured for 30 min, treated with 10 ng/ml VEGF, incubated for 10 min, treated with 1 mM 5-(biotinamido)pentylamine, incubated for 1 hr, fixed with 3.7% formaldehyde, treated with 0.2% triton X-100, treated with a blocking solution containing 138 mM NaCl, 0.1% Tween 20 and 2% BSA dissolved in a 20 mM Tris (pH 7.6) buffer, incubated for 30 min, incubated with FITC-conjugated streptavidin (1:200, v/v) for 1 hr, and then measured using confocal microscopy to thus determine the fluorescence intensity of single cells."}}, "data": [{"smiles": "CCOC(=O)c1ncn2c1CN(C)C(=O)c1cc(F)ccc1-2", "note": "[flumazenil]", "values": [{"measurement": "retinal vascular leakage compared to normal mice, flumazenil given with midazolam", "setting": "[1]", "result": "excluding the diabetic mice (Diabetic) and the flumazenil- and midazolam-administered diabetic mice"}, {"measurement": "ROS concentration in midazolam- and VEGF-treated cells after receptor antagonist", "setting": "[2]", "result": "an increase in ROS concentration with an increase in flumazenil concentration"}, {"measurement": "TGase activity in retina compared to normal mice, flumazenil given with midazolam", "setting": "TGase [3]", "result": "excluding the diabetic mice (Diabetic) and the flumazenil- and midazolam-administered diabetic mice"}, {"measurement": "TGase activity in midazolam- and VEGF-treated cells after receptor antagonist", "setting": "TGase [4]", "result": "an increase in TGase activity with an increase in flumazenil concentration"}]}]}
